Test results taken from patent US8143282B2, “Heterocyclic compounds” (S*BIO Pte Ltd., priority 2005, dated 2012).

Assays:
HDAC1 enzyme = biological target: T1, HDAC1 enzyme (Homo sapiens, UniProt Q13547); assay: In vitro HDAC assay for determination of IC50 values (BIOMOL fluorescent-based HDAC activity assay); format: biochemical
T1 construct: Amplification of human HDAC1 coding region from this cDNA library was cloned separately into the baculovirus expression pDEST20 vector; made in house; host or cells: SF9 insect cells, pDEST20-HDAC1 baculovirus
Experimental: Human cDNA library was prepared using cultured SW620 cells. Amplification of human HDAC1 coding region from this cDNA library was cloned separately into the baculovirus expression pDEST20 vector (GATEWAY Cloning Technology, Invitrogen Pte Ltd). The pDEST20-HDAC1 construct was confirmed by DNA sequencing. Recombinant baculovirus was prepared using the Bac-To-Bac method following the manufacturer's instruction (Invitrogen Pte Ltd).
Expression of GST-HDAC1 was done by infecting SF9 cells (Invitrogen Pte Ltd) with pDEST20-HDAC1 baculovirus at MOI=1 for 48 h. Soluble cell lysate was incubated with pre-equilibrated Glutathione Sepharose 4B beads (Amersham) at 4° C. for 2 h. The beads were washed with PBS buffer for 3 times. The GST-HDAC1 protein was eluted by elution buffer containing 50 mM Tris, pH8.0, 150 mM NaCl, 1% Triton X-100 and 10 mM or 20 mM reduced Glutathione. The purified GST-HDAC1 protein was dialyzed with HDAC storage buffer containing 10 mM Tris, pH7.5, 100 mM NaCl and 3 mM MgCl2. 20% Glycerol was added to purified GST-HDAC1 protein before storage at −80° C.
The assay has been carried out in 96 well format and the BIOMOL fluorescent-based HDAC activity assay has been applied. […] Flur de lys Developer was added and the reaction was incubated for 10 min. Briefly, deacetylation of the substrate sensitizes it to the developer, which then generates a fluorophore. The fluorophore is excited with 360 nm light and the emitted light (460 nm) is detected on a fluorometric plate reader (Tecan Ultra Microplate detection system, Tecan Group Ltd.).
The analytical software, Prism 4.0 (GraphPad Software Inc) has been used to generate IC50 from a series of data.

Colo205 cells = assay: Cell-based proliferation assay for GI50 (CyQUANT), Colo205; details: Homo sapiens, COLO 205, 96 h treatment, read-out: Cellular or Growth Inhibition Activity in Colo205 cells, GI50
Experimental: Human colon cancer cell lines (Colo205, HCT116), Ovarian cancer cell line (A2780), Hepatoma cell line (HEP3B), Prostate cancer cell line (PC3) were obtained from ATCC or ECACC. Colo205 cells were cultivated in RPMI 1640 containing 2 mM L-Glutamine, 5% FBS, 1.0 mM Na Pyruvate, 1 U/ml of penicillin and 1 μg of streptomycin. HCT116 cells were cultivated in McCoy's containing RPMI 1640 containing 2 mM L-Glutamine, 5% FBS, 1 U/ml of penicillin and 1 μg of streptomycin. A2780 cells were cultivated in RPMI 1640 containing 2 mM L-Glutamine, 5% FBS, 1 U/ml of penicillin and 1 μg of streptomycin. HEP3B cells were cultivated in EMEM containing 2 mM L-glutamine, 5% FBS, 1% non essential amino acid, 1 mM Na Pyruvate, 1 U/ml of penicillin and 1 μg of streptomycin. PC3 cells were cultivated in F12K, 2 mM L-glutamine, 5% FBS, 1 U/ml of penicillin and 1 μg of streptomycin. PC3, Colo205, and HCT116 cells were seeded in 96-wells plate at 1000, 5000 and 6000 cells per well respectively. A2780 and HEP3B cells were seeded in 96-wells plate at 4000 cells per well respectively. The plates were incubated at 37° C., 5% CO2, for 24 h. Cells were treated with compounds at various concentrations for 96 h. Cell growth was then monitored using CyQUANT® cell proliferation assay (Invitrogen Pte Ltd). Dose response curves were plotted to determine GI50 values for the compounds using XL-fit (ID Business Solution, Emeryville, Calif.). GI50 is defined as the concentration of compound required for 50% inhibition of cell growth.

T1 sequence (Q13547 whole entry): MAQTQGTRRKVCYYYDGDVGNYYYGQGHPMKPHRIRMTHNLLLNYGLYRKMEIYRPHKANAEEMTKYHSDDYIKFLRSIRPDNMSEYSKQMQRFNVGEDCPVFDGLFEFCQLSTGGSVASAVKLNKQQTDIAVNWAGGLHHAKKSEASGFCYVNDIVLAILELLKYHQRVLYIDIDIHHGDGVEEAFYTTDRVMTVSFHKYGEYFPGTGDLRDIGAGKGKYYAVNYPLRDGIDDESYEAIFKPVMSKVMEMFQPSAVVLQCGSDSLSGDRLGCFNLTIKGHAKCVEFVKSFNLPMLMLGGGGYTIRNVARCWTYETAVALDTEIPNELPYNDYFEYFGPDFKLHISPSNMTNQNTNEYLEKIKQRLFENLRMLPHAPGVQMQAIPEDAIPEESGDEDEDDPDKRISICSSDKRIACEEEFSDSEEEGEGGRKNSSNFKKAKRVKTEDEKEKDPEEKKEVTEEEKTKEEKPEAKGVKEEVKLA

| Compound | IC50 (HDAC1 enzyme) [nM] | GI50 (Colo205 cells) [nM] |
| --- | --- | --- |
| CCN(CC)CCn1c(CNC(=O)C(C)(C)C)nc2cc(/C=C/C(=O)NO)ccc21 [Compound 61, 3-{1-(2-Diethylamino-ethyl)-2-[(2,2-dimethyl-propionylamino)-methyl]-1H-benzoimidazol-5-yl}-N-hydroxy-acrylamide] | 70 | 1320 |
| CCCN(CCn1cnc2cc(/C=C/C(=O)NO)ccc21)CC(C)(C)C [Compound 134, 3-(1-{2-[(2,2-Dimethyl-propyl)-propyl-amino]-ethyl}-1H-benzoimidazol-5-yl)-N-hydroxy-acrylamide] | 220 | 2300 |
| CN(C)CCn1c(CCC(C)(C)C)nc2cc(/C=C/C(=O)NO)ccc21 [Compound 64, 3-[2-(3,3-Dimethyl-butyl)-1-(2-Dimethylamino-ethyl)-1H-benzoimidazol-5-yl]-N-hydroxy-acrylamide] | 100 | 730 |
| CC(C)(C)CCNCCn1cnc2cc(/C=C/C(=O)NO)ccc21 [Compound 126, 3-{1-[2-(3,3-Dimethyl-butylamino)-ethyl]-1H-benzoimidazol-5-yl}-N-hydroxy-acrylamide] | 42 | 420 |
| CCCCc1nc2cc(/C=C/C(=O)NO)ccc2n1C1CCN(C)C1 (centres unmarked) [Compound 81, 3-[2-Butyl-1-(1-methyl-pyrrolidin-3-yl)-1H-benzoimidazol-5-yl]-N-hydroxy-acrylamide] | 120 | 1000 |
| CCN(CC)CCn1c(CCSC)nc2cc(/C=C/C(=O)NO)ccc21 [Compound 45, 3-[1-(2-Diethylamino-ethyl)-2-(2-methylsulfanyl-ethyl)-1H-benzoimidazol-5-yl]-N-hydroxy-acrylamide] | 53 | 540 |
| CCCCCc1nc2cc(/C=C/C(=O)NO)ccc2n1CCN(CC)CCOC [Compound 84, 3-(1-{2-[Ethyl-(2-methoxy-ethyl)-amino]-ethyl}-2-pentyl-1H-benzoimidazol-5-yl)-N-hydroxy-acrylamide] | 63 | 1030 |
| C=CCCc1nc2cc(/C=C/C(=O)NO)ccc2n1CCNCC [Compound 49, 3-[2-But-3-enyl-1-(2-ethylamino-ethyl)-1H-benzoimidazol-5-yl]-N-hydroxy-acrylamide] | 110 | 1750 |
| CC(Cc1nc2cc(/C=C/C(=O)NO)ccc2n1CCNC(C)C)CC(C)(C)C (centres unmarked) [Compound 39, N-Hydroxy-3-[1-(2-isopropylamino-ethyl)-2-(2,4,4-trimethyl-pentyl)-1H-benzoimidazol-5-yl]-acrylamide] | 24 | 230 |
| CCCCCCN(CC)CCn1c(C)nc2cc(/C=C/C(=O)NO)ccc21 [Compound 116, 3-{1-[2-(Ethyl-hexyl-amino)-ethyl]-2-methyl-1H-benzoimidazol-5-yl}-N-hydroxy-acrylamide] | 100 | 700 |
| O=C(/C=C/c1ccc2c(c1)ncn2C1CCN(CCCc2ccccc2)C1)NO (centres unmarked) [Compound 98, (E)-N-hydroxy-3-(1-(1-(3-phenylpropyl)pyrrolidin-3-yl)-1H-benzo[d]imidazol-5-yl)acrylamide] | 320 | – |
| CCCCc1nc2cc(/C=C/C(=O)NO)ccc2n1CC(C)(C)CN(C)C [Compound 3, 3-[2-Butyl-1-(3-dimethylamino-2,2-dimethyl-propyl)-1H-benzoimidazol-5-yl]-N-hydroxy-acrylamide] | – | 2220 |
| CC(C)(C)CNCCn1cnc2cc(/C=C/C(=O)NO)ccc21 [Compound 133, 3-{1-[2-(2,2-Dimethyl-propylamino)-ethyl]-1H-benzoimidazol-5-yl}-N-hydroxy-acrylamide] | 72 | 560 |
| CC(C)Cc1nc2cc(/C=C/C(=O)NO)ccc2n1CC(C)(C)CN(C)C [Compound 6, 3-[1-(3-Dimethylamino-2,2-dimethyl-propyl)-2-isobutyl-1H-benzoimidazol-5-yl]-N-hydroxy-acrylamide] | 180 | 2690 |
| CCCCc1nc2cc(/C=C/C(=O)NO)ccc2n1CCN(CC)CCCO [Compound 91, 3-(2-Butyl-1-{2-[ethyl-(3-hydroxy-propyl)-amino]-ethyl}-1H-benzoimidazol-5-yl)-N-hydroxy-acrylamide] | 60 | 2400 |
| CC(Cc1nc2cc(/C=C/C(=O)NO)ccc2n1CCCNC(C)C)CC(C)(C)C (centres unmarked) [Compound 32, N-Hydroxy-3-[1-(3-isopropylamino-propyl)-2-(2,4,4-trimethyl-pentyl)-1H-benzoimidazol-5-yl]-acrylamide] | 60 | 740 |
| CCCCC/C=C\CCc1nc2cc(/C=C/C(=O)NO)ccc2n1CCNC [Compound 72, N-Hydroxy-3-[1-(2-methylamino-ethyl)-2-non-3-enyl-1H-benzoimidazol-5-yl]-acrylamide] | 17 | 160 |
| CCCCN(CC)CCn1c(C(F)(F)F)nc2cc(/C=C/C(=O)NO)ccc21 [Compound 117, 3-{1-[2-(Butyl-ethyl-amino)-ethyl]-2-trifluoromethyl-1H-benzoimidazol-5-yl}-N-hydroxy-acrylamide] | 190 | 1800 |
| CCCc1nc2cc(/C=C/C(=O)NO)ccc2n1CCN(C)CCC(C)(C)C [Compound 136, 3-(1-{2-[(3,3-Dimethyl-butyl)-methyl-amino]-ethyl}-2-propyl-1H-benzoimidazol-5-yl)-N-hydroxy-acrylamide] | 53 | 390 |
| CC(C)CCN(CCn1cnc2cc(/C=C/C(=O)NO)ccc21)C(C)C [Compound 121, N-Hydroxy-3-(1-{2-[isopropyl-(3-methyl-butyl)-amino]-ethyl}-1H-benzoimidazol-5-yl)-acrylamide] | 79 | 490 |
| CCCCCCN(CC)CCn1cnc2cc(/C=C/C(=O)NO)ccc21 [Compound 87, 3-{1-[2-(Ethyl-hexyl-amino)-ethyl]-1H-benzoimidazol-5-yl}-N-hydroxy-acrylamide] | 100 | 1070 |
| CC/C=C\CCc1nc2cc(/C=C/C(=O)NO)ccc2n1CCNC(C)C [Compound 28, 3-[2-Hex-3-enyl-1-(2-isopropylamino-ethyl)-1H-benzoimidazol-5-yl]-N-hydroxy-acrylamide] | 21 | 180 |
| CCCCN(CC)CCn1cnc2cc(/C=C/C(=O)NO)ccc21 [Compound 95, 3-{1-[2-(Butyl-ethyl-amino)-ethyl]-1H-benzoimidazol-5-yl}-N-hydroxy-acrylamide] | 52 | 570 |
| CN(C)CC(C)(C)Cn1c(CCC(F)(F)F)nc2cc(/C=C/C(=O)NO)ccc21 [Compound 13, 3-[1-(3-Dimethylamino-2,2-dimethyl-propyl)-2-(3,3,3-trifluoro-propyl)-1H-benzoimidazol-5-yl]-N-hydroxy-acrylamide] | 420 | 5500 |
| CC(C)N(CCn1c(CC(C)(C)C)nc2cc(/C=C/C(=O)NO)ccc21)C(C)C [Compound 20, 3-[1-(2-Diisopropylamino-ethyl)-2-(2,2-dimethyl-propyl)-1H-benzoimidazol-5-yl]-N-hydroxy-acrylamide] | 260 | 2660 |
| CCCCc1nc2cc(/C=C/C(=O)NO)ccc2n1CCN(C)C [Compound 57, 3-[2-Butyl-1-(2-dimethylamino-ethyl)-1H-benzoimidazol-5-yl]-N-hydroxy-acrylamide] | – | 650 |
| CCCCCCc1nc2cc(/C=C/C(=O)NO)ccc2n1CCN(CC)CC [Compound 31, 3-[1-(2-Diethylamino-ethyl)-2-hexyl-1H-benzoimidazol-5-yl]-N-hydroxy-acrylamide] | – | 420 |
